Read-outs that look alike come from different tables or passages of the source.

The test system of experiment [1] is Arabidopsis wild-type control. The experiment is described as follows: Germination assay in 48-well plates. It is filed as in vivo, Arabidopsis thaliana. As to conditions: plant growth IC50 ratio to wildtype, mean of 5 T2 events. On the procedure: (§1) Depending on the species, the plants are kept at 10-25° C. or 20-35° C. The test period extends over 3 weeks. During this time, the plants are tended and their response to the individual treatments is evaluated. Herbicide injury evaluations are taken at 2 and 3 weeks after treatment. Plant injury is rated on a scale of 0 to 9, 0 being no injury and 9 being complete death. Tolerance to HPPD-inhibiting, preferably pyrazolone, isoxazole, or triketone derivative herbicides can also be assessed in Arabidopsis. In this case transgenic Arabidopsis thaliana plants are assayed for improved tolerance to HPPD-inhibiting, preferably pyrazolone, isoxazole, or triketone derivative herbicides in 48-well plates. Seeds are surface sterilized by stirring for 5 min in ethanol+water (70+30 by volume), rinsing one time with ethanol+water (70+30 by volume) and two times with a sterile, deionized water. The seeds are resuspended in 0.1% agar dissolved in water (w/v). Four to five seeds per well are plated on solid nutrient medium consisting of half-strength Murashige Skoog nutrient solution, pH 5.8 (Murashige and Skoog (1962) Physiologia Plantarum 15: 473-497). Compounds are dissolved in dimethylsulfoxid (DMSO) and added to the medium prior solidification (final DMSO concentration 0.1%). Multi well plates are incubated in a growth chamber at 22° C., 75% relative humidity and 110 μmol Phot*m−2*s−1 with 14:10 h light:dark photoperiod. Seven to ten days after seeding growth inhibition is evaluated by comparison to wild type plants. Tolerance factor is calculated by dividing the plant growth IC50 value of transgenic plants containing a HPPD and/or HST sequence by that of wildtype plants.

The subject of experiment [2] is Arabidopsis overexpression line Synechocystis HPPD. The experiment is described as follows: Germination assay in 48-well plates. In kind it is in vivo, Arabidopsis thaliana. As to conditions: IC50 transgenic / wildtype, mean of 5 T2 events. On the procedure:
as §1

For experiment [3], the system named is Arabidopsis overexpression line Arabidopsis HPPD. The experiment is described as follows: Germination assay in 48-well plates. In kind it is in vivo, Arabidopsis thaliana. As to conditions: plant growth IC50 transgenic / wildtype, mean of 5 T2 events. On the procedure: as §1
Experiment [4] has as its system transgenic Arabidopsis plants (T2) HvHPPD L320H. In kind it is in vivo, Arabidopsis thaliana. Particulars: for Injury evaluation: Arabidopsis T2 HvHPPD L320H, two weeks after treatment. From the text: (§2) For post emergence treatment, the test plants are first grown to a height of 3 to 15 cm, depending on the plant habit, and only then treated with the herbicides. For this purpose, the test plants are either sown directly and grown in the same containers, or they are first grown separately and transplanted into the test containers a few days prior to treatment.
(§3) Herbicide injury scoring is done 2-3 weeks after treatment and is rated on a scale of 0 to 100%, 0% being no injury and 100% being complete death.
(§4) Transgenic Arabidopsis plants were sprayed with a range of doses from 0.78-6.25 g/ha of different HPPD-inhibiting herbicides and injury evaluations were taken two weeks after treatment.

The subject of experiment [5] is transgenic Arabidopsis plants (T2) PtHPPD WT (Picrophilus HPPD). The experiment is described as follows: Greenhouse herbicide spray test. In kind it is in vivo, Arabidopsis thaliana. Particulars: for Injury evaluation: Arabidopsis T2 PtHPPD WT, two weeks after treatment.
From the text: as §2, §3, §4

Experiment [6] concerns transgenic Arabidopsis plants (T2) HvHPPD L320H, P321A. Kind of experiment: Greenhouse herbicide spray test. In kind it is in vivo, Arabidopsis thaliana. Particulars: two weeks after treatment.
From the text: as §2, §3, §4

Experiment [7] relates to transgenic soybean plants GmHPPD, event SDS-10298. The experiment is described as follows: Greenhouse testing of soybean plants. In kind it is in vivo, Glycine max. As to conditions: soybean GmHPPD SDS-10298, 14 days, average of 8 T1 individuals. On the procedure: (§5) Transgenic plants expressing heterologous HPPD or HST enzymes are tested for tolerance against HPPD-inhibiting, preferably pyrazolone, isoxazole, or triketone derivative herbicides in greenhouse experiments.
as §2
(§6) For testing of T0 plants, cuttings can be used. In the case of soybean plants, an optimal shoot for cutting is about 7.5 to 10 cm tall, with at least two nodes present. Each cutting is taken from the original transformant (mother plant) and dipped into rooting hormone powder (indole-3-butyric acid, IBA). The cutting is then placed in oasis wedges inside a bio-dome. Wild type cuttings are also taken simultaneously to serve as controls. The cuttings are kept in the bio-dome for 5-7 days and then transplanted to pots and then acclimated in the growth chamber for two more days. Subsequently, the cuttings are transferred to the greenhouse, acclimated for approximately 4 days, and then subjected to spray tests as indicated.
as §1, with “Plant injury is rated on a scale of 0 to 9, 0 being no injury and 9 being complete death.” left out
(§7) Transgenic soy plants were sprayed with a range of doses from 6.25-100 g/ha with an HPPD-inhibiting herbicide and injury evaluations were taken two weeks after treatment. […] Compared to the untransformed wild-type, plants comprising polynucleotides encoding for Arabidopsis HPPD wild-type or mutated versions thereof were less susceptible to Inhibitor 1.

For experiment [8], the system named is transgenic soybean plants AtHPPD M335H, event SDS-9863. Kind of experiment: Greenhouse testing of soybean plants. It is filed as in vivo, Glycine max. As to conditions: soybean AtHPPD M335H SDS-9863, 14 days, average of 8 T1 individuals. On the procedure: as §5, §2, §6
as §1, with “Plant injury is rated on a scale of 0 to 9, 0 being no injury and 9 being complete death.” left out
as §7

For the compound `CS(=O)(=O)c1ccc(C(=O)C2C(=O)CCCC2=O)c([N+](=O)[O-])c1` [Inhibitor 2, 2-(4-methylsulfonyl-2-nitro-benzoyl)cyclohexane-1,3-dione], the Tolerance factor in experiment [1] came to 1; in experiment [2], 10; in experiment [3], 10. The “resistance (in words)” value in experiment [4] (Arabidopsis HvHPPD L320H, 0.78-6.25 g/ha) is “resistant”. Besides, the Injury evaluation in experiment [4] (0.78 g/ha), in experiment [4] (1.56 g/ha), in experiment [4] (3.125 g/ha), in experiment [4] (6.25 g/ha), in experiment [5] (0.78 g/ha) and in experiment [5] (1.56 g/ha) was 0% in each case. Besides, the Injury evaluation in experiment [5] (3.125 g/ha) is given as 3%; in experiment [5] (6.25 g/ha), 0%; in experiment [6] (0.78 g/ha), 0%; in experiment [6] (1.56 g/ha), 0%; in experiment [6] (3.125 g/ha), 0%; in experiment [6] (6.25 g/ha) it was 0%. The “leaf damage (in words)” value in experiment [5] (Arabidopsis overexpressing Picrophilus HPPD (SEQ-ID:40), tested application rates 0.78-6.25 g/ha) was “no leaf damages could be observed”.
On to `Cc1c(C(=O)c2cnn(C)c2O)ccc(S(C)(=O)=O)c1C1=NOCC1` [Inhibitor 1, [3-(4,5-dihydroisoxazol-3-yl)-2-methyl-4-methylsulfonyl-phenyl]-(5-hydroxy-1-methyl-pyrazol-4-yl)methanone], for which the Tolerance factor in experiment [1] is 1; in experiment [2], 7.5; in experiment [3], 9. The “Injury evaluation (bleaching phenotype, scale of 1-100)” value in experiment [7] (6.25 g/ha) amounted to 20%; in experiment [7] (25 g/ha) it was 58%; in experiment [7] (100 g/ha), 83%; in experiment [8] (6.25 g/ha) it was 0%; in experiment [8] (25 g/ha), 4%; in experiment [8] (100 g/ha) it was 59%. Further, in experiment [4] (Arabidopsis HvHPPD L320H, lowest concentration tested), the fold increased tolerance is 6.5 fold. Moreover, the Injury evaluation in experiment [4] (0.78 g/ha) worked out at 13%; in experiment [4] (1.56 g/ha), 57%; in experiment [4] (3.125 g/ha), 68%; in experiment [4] (6.25 g/ha) it was 94%; in experiment [5] (0.78 g/ha), 13%; in experiment [5] (1.56 g/ha) it was 17%. The Injury evaluation in experiment [5] (3.125 g/ha) stood at 62%; in experiment [5] (6.25 g/ha), 99%; in experiment [6] (0.78 g/ha) it was 0%; in experiment [6] (1.56 g/ha) it was 0%; in experiment [6] (3.125 g/ha) it was 0%; in experiment [6] (6.25 g/ha), 0%. Also, the “fold less susceptible compared to the control” value in experiment [5] (Arabidopsis expressing Picrophilus HPPD, dose of 3,125 g/ha) came out at 1.6 fold. The “fold tolerance compared to the control” value in experiment [5] (Arabidopsis expressing Picrophilus HPPD, two lowest application rates) was determined as 6.8 fold.
